Here are results for 21 molecules from patent US10508120B2, “TYK2 inhibitors and uses thereof” (Nimbus Lakshmi, Inc., priority 2017, dated 2019).

Read-outs that look alike come from different tables or passages of the source.

Experiment [1] has as its target human TYK2 (JH2domain-pseudokinase) (Homo sapiens (Human), UniProt P29597). The experiment can be described thus: TYK2 JH2 Domain Binding Assay (KINOMEscan). The procedure, abridged: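 Competition binding of a DNA-tagged fusion of human TYK2 JH2 pseudokinase (G556–D888) with NFkB DNA-binding domain, from HEK293 extracts (<0.1 nM final), against immobilised ligand beads; 1 h shaking at room temperature, 0.9% DMSO. Bound kinase quantified by qPCR.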

For another experiment, the target named is Tyk2 kinase domain (DH1) (Homo sapiens (Human), UniProt P29597). As to the kind of experiment: Tyk2 Radioactive Kinase Assay. Format: biochemical. As to conditions: for inhibition at 10 µM: read-out: Tyk2 JH1% Inhibition @ 10 μM. The essentials: (§1)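 Single-point screen: 10 μM test compound, radioactive kinase read-out, percent inhibition reported for each kinase domain.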
Chain of Tyk2 kinase domain (DH1) (P29597 897-1176): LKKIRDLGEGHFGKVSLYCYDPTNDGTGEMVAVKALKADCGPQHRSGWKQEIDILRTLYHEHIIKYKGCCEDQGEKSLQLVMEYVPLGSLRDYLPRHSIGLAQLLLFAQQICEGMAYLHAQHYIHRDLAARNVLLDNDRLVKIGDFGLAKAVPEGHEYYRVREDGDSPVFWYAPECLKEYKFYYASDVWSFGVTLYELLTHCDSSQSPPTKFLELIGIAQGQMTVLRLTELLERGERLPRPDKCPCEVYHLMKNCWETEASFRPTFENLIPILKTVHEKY

In the next experiment the target is JAK2 kinase domain (JH1) (Homo sapiens (Human), UniProt O60674). As to the kind of experiment: JAK2 Radioactive Kinase Assay. Format: biochemical. The settings on record: for inhibition at 10 µM: read-out: JAK2 JH1% Inhibition @ 10 μM. The procedure, abridged:
as §1

Experiment [2] deals with JAK2/JAK2 homdimeric complex (Homo sapiens (Human), UniProt O60674). The experiment can be described thus: GM-CSF Induced pSTAT5 in Human PBMC. Format: cell-based. The settings on record: GM-CSF 5 ng/mL for 20 minutes, pSTAT5 by MSD, read-out: PBMC_GMCSF_pSTAT5 IC50.
Chain of JAK2/JAK2 homdimeric complex (O60674 whole entry): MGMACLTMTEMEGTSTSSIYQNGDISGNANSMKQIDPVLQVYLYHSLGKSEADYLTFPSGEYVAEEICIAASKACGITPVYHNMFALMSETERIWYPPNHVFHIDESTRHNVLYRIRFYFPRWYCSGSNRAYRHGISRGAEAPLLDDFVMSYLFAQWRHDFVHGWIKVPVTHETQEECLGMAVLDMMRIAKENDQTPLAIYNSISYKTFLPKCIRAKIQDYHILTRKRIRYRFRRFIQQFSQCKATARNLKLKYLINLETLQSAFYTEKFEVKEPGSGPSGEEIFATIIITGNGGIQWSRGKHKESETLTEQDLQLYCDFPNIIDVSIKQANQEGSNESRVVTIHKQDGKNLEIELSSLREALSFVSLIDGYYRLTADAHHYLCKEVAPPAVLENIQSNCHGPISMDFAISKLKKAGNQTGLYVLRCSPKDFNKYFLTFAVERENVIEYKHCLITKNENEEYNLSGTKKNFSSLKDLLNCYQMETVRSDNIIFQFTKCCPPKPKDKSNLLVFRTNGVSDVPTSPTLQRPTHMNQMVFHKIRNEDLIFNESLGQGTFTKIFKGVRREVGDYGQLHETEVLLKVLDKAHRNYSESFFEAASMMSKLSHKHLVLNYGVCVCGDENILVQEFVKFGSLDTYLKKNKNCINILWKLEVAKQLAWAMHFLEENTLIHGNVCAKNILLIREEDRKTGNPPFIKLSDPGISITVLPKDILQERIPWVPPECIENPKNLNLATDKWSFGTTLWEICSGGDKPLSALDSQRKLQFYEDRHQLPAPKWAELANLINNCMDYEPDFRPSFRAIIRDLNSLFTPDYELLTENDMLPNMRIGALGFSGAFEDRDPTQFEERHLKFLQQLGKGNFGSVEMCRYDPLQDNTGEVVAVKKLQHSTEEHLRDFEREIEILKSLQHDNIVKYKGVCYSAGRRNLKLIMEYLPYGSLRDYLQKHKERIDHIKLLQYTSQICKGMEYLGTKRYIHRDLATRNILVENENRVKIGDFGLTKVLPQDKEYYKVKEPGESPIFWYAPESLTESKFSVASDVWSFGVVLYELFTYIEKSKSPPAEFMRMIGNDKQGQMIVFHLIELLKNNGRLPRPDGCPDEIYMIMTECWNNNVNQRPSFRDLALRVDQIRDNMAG
Chain of JAK2/JAK2 homdimeric complex (P32927 17-897 partner): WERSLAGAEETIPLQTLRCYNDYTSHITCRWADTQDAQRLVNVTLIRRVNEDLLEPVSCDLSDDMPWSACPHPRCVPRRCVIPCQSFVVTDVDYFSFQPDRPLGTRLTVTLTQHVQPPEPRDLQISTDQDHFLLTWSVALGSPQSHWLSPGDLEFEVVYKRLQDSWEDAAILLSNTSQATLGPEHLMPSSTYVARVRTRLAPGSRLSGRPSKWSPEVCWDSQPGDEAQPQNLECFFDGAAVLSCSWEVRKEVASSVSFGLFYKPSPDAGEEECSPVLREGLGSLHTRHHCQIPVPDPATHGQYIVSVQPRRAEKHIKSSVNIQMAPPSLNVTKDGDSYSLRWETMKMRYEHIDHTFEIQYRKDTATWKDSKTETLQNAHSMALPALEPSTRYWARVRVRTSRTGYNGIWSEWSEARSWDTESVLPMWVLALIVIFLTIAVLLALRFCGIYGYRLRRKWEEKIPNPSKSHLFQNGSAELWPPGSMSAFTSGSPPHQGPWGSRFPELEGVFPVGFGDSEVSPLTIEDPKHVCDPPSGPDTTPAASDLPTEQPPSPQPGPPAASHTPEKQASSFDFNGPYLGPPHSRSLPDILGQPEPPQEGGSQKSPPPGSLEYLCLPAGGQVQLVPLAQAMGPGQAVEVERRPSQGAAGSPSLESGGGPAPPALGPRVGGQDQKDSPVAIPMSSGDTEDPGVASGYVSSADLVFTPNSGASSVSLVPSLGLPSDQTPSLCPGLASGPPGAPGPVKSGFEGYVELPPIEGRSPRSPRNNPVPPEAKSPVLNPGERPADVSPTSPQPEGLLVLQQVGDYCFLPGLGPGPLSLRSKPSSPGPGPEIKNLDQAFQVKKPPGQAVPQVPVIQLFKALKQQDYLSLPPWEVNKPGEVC

Chain of human TYK2 (JH2domain-pseudokinase) (P29597 556-888): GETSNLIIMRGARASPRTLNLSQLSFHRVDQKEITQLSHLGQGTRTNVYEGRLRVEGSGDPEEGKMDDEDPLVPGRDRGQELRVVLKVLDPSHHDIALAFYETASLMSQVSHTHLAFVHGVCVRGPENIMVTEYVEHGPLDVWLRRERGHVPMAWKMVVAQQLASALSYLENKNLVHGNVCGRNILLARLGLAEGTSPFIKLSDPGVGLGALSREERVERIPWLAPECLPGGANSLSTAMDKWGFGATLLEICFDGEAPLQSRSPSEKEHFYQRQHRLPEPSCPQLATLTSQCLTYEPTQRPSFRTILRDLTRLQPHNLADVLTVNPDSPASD
Chain of JAK2 kinase domain (JH1) (O60674 849-1124): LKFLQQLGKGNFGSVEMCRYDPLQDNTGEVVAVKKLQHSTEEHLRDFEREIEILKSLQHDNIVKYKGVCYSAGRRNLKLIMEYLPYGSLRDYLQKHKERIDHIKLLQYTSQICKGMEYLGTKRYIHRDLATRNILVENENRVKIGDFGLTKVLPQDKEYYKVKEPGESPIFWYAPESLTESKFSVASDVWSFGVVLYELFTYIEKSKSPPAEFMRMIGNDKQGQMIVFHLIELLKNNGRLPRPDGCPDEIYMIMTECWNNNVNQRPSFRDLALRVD

One may read the Kd as the concentration at which binding is half-saturated. The term inhibition denotes how much of the control response was suppressed. For orientation: IC50 means the midpoint of a concentration-inhibition curve. Take `CNc1cc(Nc2cccn(-c3ccccc3F)c2=O)nc2c(C(=O)N[C@H]3CC[C@@H]3O)cnn12` [I-1038]: in experiment [1], the Kd is less than 0.0002 µM. Moreover, the inhibition at 10 µM on Tyk2 kinase domain (DH1) (10 μM compound, 10 μM ATP) is less than 50%; at JAK2 kinase domain (JH1) (10 μM compound, 10 μM ATP), less than 50%. In experiment [2], the IC50 is greater than 50 µM.

In the case of `CNc1cc(Nc2cccn([C@H]3CCCC[C@H]3OC)c2=O)nc2c(C(=O)N[C@H]3CC[C@@H]3OC)cnn12` [I-1097], the Kd in experiment [1] was less than 0.0002 µM. For the same molecule, the inhibition at 10 µM at Tyk2 kinase domain (DH1) (10 μM compound, 10 μM ATP) was less than 50%; at JAK2 kinase domain (JH1) (10 μM compound, 10 μM ATP), less than 50%. For the same molecule, the IC50 in experiment [2] was greater than 50 µM.

`CNc1cc(Nc2cccn([C@H]3CCC[C@@H](OC)C3)c2=O)nc2c(C(=O)N[C@H]3CC[C@@H]3OC)cnn12` [I-996] came in with a dissociation constant (Kd) in experiment [1] of less than 0.0002 µM. In addition, the “Tyk2 JH1% Inhibition @ 10 μM” value on Tyk2 kinase domain (DH1) (10 μM compound, 10 μM ATP) was “A (percent inhibition at 10 μM lower than 50)”. In addition, the “JAK2 JH1% Inhibition @ 10 μM” value on JAK2 kinase domain (JH1) (10 μM compound, 10 μM ATP) was “A (percent inhibition at 10 μM lower than 50)”. In addition, the IC50 in experiment [2] is greater than 50 µM.

For `CNc1cc(-c2cn(C3CC3)c3ncccc23)nc2c(C(=O)N[C@H]3CC[C@@H]3OC)cnn12` (stereo in doubt) [I-1067, 5-(1-cyclopropyl-1H-pyrrolo[2,3-b]pyridin-3-yl)-N-(2-methoxycyclobutyl)-7-(methylamino)pyrazolo[1,5-a]pyrimidine-3-carboxamide], the Kd in experiment [1] is less than 0.0002 µM. The inhibition at 10 µM on Tyk2 kinase domain (DH1) (10 μM compound, 10 μM ATP) was less than 50%; at JAK2 kinase domain (JH1) (10 μM compound, 10 μM ATP), less than 50%. Further, in experiment [2], the IC50 was greater than 12.5 µM.

`CNc1cc(Nc2cccn([C@H]3CCC[C@H](OC)C3)c2=O)nc2c(C(=O)NCC(C)(C)CO)cnn12` [I-1027] displayed a Kd in experiment [1] of less than 0.0002 µM. For the same molecule, the inhibition at 10 µM is less than 50% on Tyk2 kinase domain (DH1) (10 μM compound, 10 μM ATP) and less than 50% on JAK2 kinase domain (JH1) (10 μM compound, 10 μM ATP). For the same molecule, the IC50 in experiment [2] was greater than 50 µM.

For the molecule `CNc1cc(Nc2cccn(-c3cnn(C)c3F)c2=O)nc2c(C(=O)N[C@H]3CC[C@@H]3OC)cnn12` [I-1066], in experiment [1], the Kd is less than 0.0002 µM. In addition, the inhibition at 10 µM was less than 50% on Tyk2 kinase domain (DH1) (10 μM compound, 10 μM ATP) and less than 50% on JAK2 kinase domain (JH1) (10 μM compound, 10 μM ATP). Further, the IC50 in experiment [2] is greater than 50 µM.

In turn, `CNc1cc(Nc2cccc(N3CCCC3=O)n2)nc2c(C(=O)N[C@H]3CC[C@H]3O)cnn12` [I-969] had a Kd in experiment [1] of less than 0.0002 µM. In addition, the inhibition at 10 µM is less than 50% at Tyk2 kinase domain (DH1) (10 μM compound, 10 μM ATP) and less than 50% at JAK2 kinase domain (JH1) (10 μM compound, 10 μM ATP). Also, in experiment [2], the IC50 was greater than 50 µM.

In experiment [1], `CNc1cc(Nc2cccn([C@@H]3CC[C@H]3OC)c2=O)nc2c(C(=O)N[C@@H]3C[C@@H]3F)cnn12` [I-1022] had a Kd of less than 0.0002 µM. Moreover, the inhibition at 10 µM on Tyk2 kinase domain (DH1) (10 μM compound, 10 μM ATP) was less than 50%; at JAK2 kinase domain (JH1) (10 μM compound, 10 μM ATP), less than 50%. The concentration for half-maximal inhibition (IC50) in experiment [2] was greater than 12.5 µM.

In experiment [1], `CNc1cc(Nc2cccn([C@H]3CC[C@](C)(OC)CC3)c2=O)nc2c(C(=O)N[C@@H]3CC[C@H]3O)cnn12` [I-962] returned a Kd of less than 0.0002 µM. The “Tyk2 JH1% Inhibition @ 10 μM” value at Tyk2 kinase domain (DH1) (10 μM compound, 10 μM ATP) is given as “A (percent inhibition at 10 μM lower than 50)”. In addition, the “JAK2 JH1% Inhibition @ 10 μM” value at JAK2 kinase domain (JH1) (10 μM compound, 10 μM ATP) is “A (percent inhibition at 10 μM lower than 50)”. The IC50 in experiment [2] is greater than 50 µM.

For `CNc1cc(Nc2cccn(-c3ncc(C)s3)c2=O)nc2c(C(=O)N[C@@H]3CC[C@@H]3O)cnn12` [I-1073], the Kd in experiment [1] was less than 0.0002 µM. Besides, the inhibition at 10 µM at Tyk2 kinase domain (DH1) (10 μM compound, 10 μM ATP) was less than 50%; on JAK2 kinase domain (JH1) (10 μM compound, 10 μM ATP) it was less than 50%. For the same molecule, the concentration for half-maximal inhibition (IC50) in experiment [2] was greater than 50 µM.

`CNc1cc(Nc2cccn(-c3cccc(F)c3)c2=O)nc2c(C(=O)N[C@H]3CC[C@H]3O)cnn12` [I-1004] came in with a Kd in experiment [1] of less than 0.0002 µM. Further, at Tyk2 kinase domain (DH1) (10 μM compound, 10 μM ATP), the “Tyk2 JH1% Inhibition @ 10 μM” value is reported as “A (percent inhibition at 10 μM lower than 50)”. In addition, the “JAK2 JH1% Inhibition @ 10 μM” value on JAK2 kinase domain (JH1) (10 μM compound, 10 μM ATP) was “A (percent inhibition at 10 μM lower than 50)”. In addition, the 50% inhibitory concentration (IC50) in experiment [2] was greater than 12.5 µM.

Regarding `CNc1cc(Nc2cccn([C@H]3CCC[C@H](OC)C3)c2=O)nc2c(C(=O)NC3CC3)cnn12` [I-1025], in experiment [1], the dissociation constant Kd was less than 0.0002 µM. The inhibition at 10 µM at Tyk2 kinase domain (DH1) (10 μM compound, 10 μM ATP) is less than 50%; on JAK2 kinase domain (JH1) (10 μM compound, 10 μM ATP), less than 50%. Besides, the half-inhibitory concentration (IC50) in experiment [2] was greater than 50 µM.

Regarding `CNc1cc(Nc2cccn([C@H]3CCC[C@H](OC)C3)c2=O)nc2c(C(=O)N[C@H]3CC[C@@H]3OC)cnn12` [I-1098], the Kd in experiment [1] was less than 0.0002 µM. The inhibition at 10 µM was less than 50% on Tyk2 kinase domain (DH1) (10 μM compound, 10 μM ATP) and less than 50% on JAK2 kinase domain (JH1) (10 μM compound, 10 μM ATP). Also, the IC50 in experiment [2] was greater than 50 µM.

Consider `CNc1cc(Nc2cccn(C3CCC[C@H](OC)C3)c2=O)nc2c(C(=O)NCC(C)(C)CO)cnn12` (some centres unmarked) [I-958], for which the Kd in experiment [1] is less than 0.0002 µM. The inhibition at 10 µM on Tyk2 kinase domain (DH1) (10 μM compound, 10 μM ATP) was less than 50%; at JAK2 kinase domain (JH1) (10 μM compound, 10 μM ATP), less than 50%. In experiment [2], the 50% inhibitory concentration (IC50) is greater than 50 µM.

As to `CNc1cc(Nc2cccn([C@H]3CCCC[C@H]3O)c2=O)nc2c(C(=O)N[C@@H]3CC[C@H]3OC)cnn12` [I-1057], the Kd in experiment [1] was less than 0.0002 µM. Besides, the inhibition at 10 µM on Tyk2 kinase domain (DH1) (10 μM compound, 10 μM ATP) is less than 50%; on JAK2 kinase domain (JH1) (10 μM compound, 10 μM ATP) it was less than 50%. The IC50 in experiment [2] is greater than 50 µM.

`CNc1cc(Nc2cccn([C@H]3CCC[C@H](O)C3)c2=O)nc2c(C(=O)N[C@H]3CC[C@@H]3OC)cnn12` [I-1063] had a Kd in experiment [1] of less than 0.0002 µM. Also, the inhibition at 10 µM was less than 50% on Tyk2 kinase domain (DH1) (10 μM compound, 10 μM ATP) and less than 50% at JAK2 kinase domain (JH1) (10 μM compound, 10 μM ATP). For the same molecule, the IC50 in experiment [2] is greater than 50 µM.

With `CNc1cc(Nc2cccn([C@@H]3CCN(CCF)C3)c2=O)nc2c(C(=O)NC3CCC3OC)cnn12` (stereo partly drawn) [I-1096, 5-((1-((R)-1-(2-fluoroethyl)pyrrolidin-3-yl)-2-oxo-1,2-dihydropyridin-3-yl)amino)-N-(2-methoxycyclobutyl)-7-(methylamino)pyrazolo[1,5-a]pyrimidine-3-carboxamide], the Kd in experiment [1] is less than 0.0002 µM. For the same molecule, the inhibition at 10 µM on Tyk2 kinase domain (DH1) (10 μM compound, 10 μM ATP) is less than 50%; on JAK2 kinase domain (JH1) (10 μM compound, 10 μM ATP), less than 50%. Also, the IC50 in experiment [2] was greater than 50 µM.

Consider `CNc1cc(Nc2cccn(-c3ccccn3)c2=O)nc2c(C(=O)N[C@@H]3CC[C@H]3OC)cnn12` [I-908, N-((1R,2R)-2-methoxycyclobutyl)-7-(methylamino)-5-((2-oxo-2H-[1,2′-bipyridin]-3-yl)amino)pyrazolo[1,5-a]pyrimidine-3-carboxamide], for which, at Tyk2 kinase domain (DH1) (10 μM compound, 10 μM ATP), the “Tyk2 JH1% Inhibition @ 10 μM” value was “A (percent inhibition at 10 μM lower than 50)”. Further, the “JAK2 JH1% Inhibition @ 10 μM” value on JAK2 kinase domain (JH1) (10 μM compound, 10 μM ATP) is listed as “A (percent inhibition at 10 μM lower than 50)”. For the same molecule, the 50% inhibitory concentration (IC50) in experiment [2] was greater than 50 µM.

Turning to `CNc1cc(Nc2cccn([C@H]3[C@@H]4COC[C@@H]43)c2=O)nc2c(C(=O)N[C@H]3CC[C@@H]3OC)cnn12` [I-1088], the inhibition at 10 µM is less than 50% on Tyk2 kinase domain (DH1) (10 μM compound, 10 μM ATP) and less than 50% on JAK2 kinase domain (JH1) (10 μM compound, 10 μM ATP). The IC50 in experiment [2] was greater than 50 µM.

Take `CNc1cc(Nc2cccn([C@H]3CCC[C@@H](OC)C3)c2=O)nc2c(C(=O)N[C@@H]3CC[C@H]3O)cnn12` [I-993]: the “Tyk2 JH1% Inhibition @ 10 μM” value at Tyk2 kinase domain (DH1) (10 μM compound, 10 μM ATP) is reported as “A (percent inhibition at 10 μM lower than 50)”. The “JAK2 JH1% Inhibition @ 10 μM” value on JAK2 kinase domain (JH1) (10 μM compound, 10 μM ATP) was “A (percent inhibition at 10 μM lower than 50)”. For the same molecule, the IC50 in experiment [2] is greater than 50 µM.

Consider `CNc1cc(Nc2cccn(-c3ccccn3)c2=O)nc2c(C(=O)N[C@@H]3CC[C@H]3OC)cnn12` (stereo in doubt) [I-816, N-(2-methoxycyclobutyl)-7-(methylamino)-5-((2-oxo-2H-[1,2′-bipyridin]-3-yl)amino)pyrazolo[1,5-a]pyrimidine-3-carboxamide], for which the inhibition at 10 µM at Tyk2 kinase domain (DH1) and on JAK2 kinase domain (JH1) was less than 50% each time. Also, the IC50 in experiment [2] was greater than 2.5 µM.
